Experimental data as given in the supplement of paper PMC13207355.
Structures can show the parent of a compound that is named as a salt.

Columns and labels:
Settings in all cases: exposure time: 72 h
[1] = test system: E31 (patient-derived glioblastoma stem cells of proneural subtype); assay: surviving fraction (nuclei count normalised to DMSO); higher = more cells surviving (less toxic)
[2] = test system: E34 (patient-derived glioblastoma stem cells of proneural subtype); assay: as above
[3] = test system: FT3469 (normal neural stem cell line); assay: as above
[4] = test system: E13 (patient-derived glioblastoma stem cells of classical subtype); assay: as above
[5] = test system: E21 (patient-derived glioblastoma stem cells of mesenchymal subtype); assay: as above
[6] = test system: E28 (patient-derived glioblastoma stem cells of classical subtype); assay: as above
[7] = test system: E57 (patient-derived glioblastoma stem cells of mesenchymal subtype); assay: as above
[8] = test system: E31; assay: phenotypic distance (Euclidean, principal components) from DMSO controls (arbitrary units); higher = stronger morphological change
[9] = test system: E34; assay: as above
[10] = test system: FT3469; assay: as above
[11] = test system: E13; assay: as above
[12] = test system: E21; assay: as above
[13] = test system: E28; assay: as above
[14] = test system: E57; assay: as above
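For phenotypic distance (Euclidean, principal components) from DMSO controls in this document: cell Painting imaging in 384-well plates, CellProfiler features reduced to at least 20 principal components, Euclidean distance versus same-plate DMSO vehicle wells (0.1% v/v), median over six images per well.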
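For surviving fraction (nuclei count normalised to DMSO) in this document: nuclei counted by high-content imaging of Hoechst-stained cells in laminin-coated 384-well plates, relative to 0.1% DMSO vehicle wells, with staurosporine as cell-death control.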

CSc1ccc2c(c1)N(CCC1CCCCN1C)c1ccccc1S2 (stereo unspecified) [Thioridazine hydrochloride]
Settings | phenotypic distance | surviving fraction
[1], 4.1 nM | – | 0.911
[1], 12.3 nM | – | 0.899
[1], 37 nM | – | 1.03
[1], 111.1 nM | – | 0.762
[1], 333.3 nM | – | 1.01
[1], 1000 nM | – | 0.88
[1], 3000 nM | – | 0.874
[2], 4.1 nM | – | 0.994
[2], 12.3 nM | – | 0.901
[2], 37 nM | – | 0.957
[2], 111.1 nM | – | 0.923
[2], 333.3 nM | – | 0.896
[2], 1000 nM | – | 0.974
[2], 3000 nM | – | 0.91
[3], 4.1 nM | – | 1.11
[3], 12.3 nM | – | 0.948
[3], 37 nM | – | 1.02
[3], 111.1 nM | – | 0.934
[3], 333.3 nM | – | 1
[3], 1000 nM | – | 1.06
[3], 3000 nM | – | 0.997
[4], 4.1 nM | – | 0.922
[4], 12.3 nM | – | 0.886
[4], 37 nM | – | 0.934
[4], 111.1 nM | – | 0.929
[4], 333.3 nM | – | 0.939
[4], 1000 nM | – | 0.93
[4], 3000 nM | – | 0.861
[5], 4.1 nM | – | 0.936
[5], 12.3 nM | – | 0.936
[5], 37 nM | – | 0.946
[5], 111.1 nM | – | 1
[5], 333.3 nM | – | 0.935
[5], 1000 nM | – | 0.952
[5], 3000 nM | – | 1.02
[6], 4.1 nM | – | 1.06
[6], 12.3 nM | – | 1.05
[6], 37 nM | – | 1.01
[6], 111.1 nM | – | 1.06
[6], 333.3 nM | – | 1.14
[6], 1000 nM | – | 0.893
[6], 3000 nM | – | 1.05
[7], 4.1 nM | – | 0.993
[7], 12.3 nM | – | 0.914
[7], 37 nM | – | 0.948
[7], 111.1 nM | – | 0.926
[7], 333.3 nM | – | 0.952
[7], 1000 nM | – | 0.889
[7], 3000 nM | – | 1.2
[8], 4.1 nM | 1.05 | –
[8], 12.3 nM | 0.458 | –
[8], 37 nM | 0.506 | –
[8], 111.1 nM | 0.946 | –
[8], 333.3 nM | 0.547 | –
[8], 1000 nM | 0.532 | –
[8], 3000 nM | 1.19 | –
[9], 4.1 nM | 1.83 | –
[9], 12.3 nM | 0.749 | –
[9], 37 nM | 0.609 | –
[9], 111.1 nM | 0.331 | –
[9], 333.3 nM | 0.663 | –
[9], 1000 nM | 0.609 | –
[9], 3000 nM | 0.89 | –
[10], 4.1 nM | 1.76 | –
[10], 12.3 nM | 1.1 | –
[10], 37 nM | 0.901 | –
[10], 111.1 nM | 0.672 | –
[10], 333.3 nM | 1.85 | –
[10], 1000 nM | 0.516 | –
[10], 3000 nM | 0.354 | –
[11], 4.1 nM | 0.45 | –
[11], 12.3 nM | 0.608 | –
[11], 37 nM | 0.775 | –
[11], 111.1 nM | 3.1 | –
[11], 333.3 nM | 0.477 | –
[11], 1000 nM | 0.686 | –
[11], 3000 nM | 1.2 | –
[12], 4.1 nM | 1.5 | –
[12], 12.3 nM | 0.757 | –
[12], 37 nM | 0.366 | –
[12], 111.1 nM | 0.452 | –
[12], 333.3 nM | 0.631 | –
[12], 1000 nM | 0.422 | –
[12], 3000 nM | 0.911 | –
[13], 4.1 nM | 1.44 | –
[13], 12.3 nM | 0.64 | –
[13], 37 nM | 0.64 | –
[13], 111.1 nM | 0.832 | –
[13], 333.3 nM | 0.524 | –
[13], 1000 nM | 0.717 | –
[13], 3000 nM | 0.589 | –
[14], 4.1 nM | 1.05 | –
[14], 12.3 nM | 0.805 | –
[14], 37 nM | 0.596 | –
[14], 111.1 nM | 0.728 | –
[14], 333.3 nM | 0.352 | –
[14], 1000 nM | 0.966 | –
[14], 3000 nM | 0.872 | –

CCCCCCCCCCCCCCCC[N+](C)(C)CCN(Cc1ccc(OC)cc1)c1ncccn1 [Thonzonium bromide]
Settings | phenotypic distance | surviving fraction
[1], 4.1 nM | – | 1.16
[1], 12.3 nM | – | 1.1
[1], 37 nM | – | 1.09
[1], 111.1 nM | – | 0.966
[1], 333.3 nM | – | 0.882
[1], 1000 nM | – | 0.731
[1], 3000 nM | – | 0.034
[2], 4.1 nM | – | 1.03
[2], 12.3 nM | – | 0.954
[2], 37 nM | – | 1.04
[2], 111.1 nM | – | 0.965
[2], 333.3 nM | – | 0.876
[2], 1000 nM | – | 0.699
[2], 3000 nM | – | 0.0452
[3], 4.1 nM | – | 0.999
[3], 12.3 nM | – | 0.934
[3], 37 nM | – | 0.968
[3], 111.1 nM | – | 0.955
[3], 333.3 nM | – | 0.924
[3], 1000 nM | – | 0.859
[3], 3000 nM | – | 0.00702
[4], 4.1 nM | – | 1.04
[4], 12.3 nM | – | 0.969
[4], 37 nM | – | 0.906
[4], 111.1 nM | – | 0.816
[4], 333.3 nM | – | 0.606
[4], 1000 nM | – | 0.555
[4], 3000 nM | – | 0.19
[5], 4.1 nM | – | 0.966
[5], 12.3 nM | – | 1.03
[5], 37 nM | – | 1.03
[5], 111.1 nM | – | 0.987
[5], 333.3 nM | – | 0.962
[5], 1000 nM | – | 0.854
[5], 3000 nM | – | 0.00843
[6], 4.1 nM | – | 1.08
[6], 12.3 nM | – | 0.936
[6], 37 nM | – | 1.09
[6], 111.1 nM | – | 1.01
[6], 333.3 nM | – | 0.814
[6], 1000 nM | – | 0.696
[6], 3000 nM | – | 0.00389
[7], 4.1 nM | – | 0.925
[7], 12.3 nM | – | 1.04
[7], 37 nM | – | 1.04
[7], 111.1 nM | – | 1.04
[7], 333.3 nM | – | 1.13
[7], 1000 nM | – | 1.01
[7], 3000 nM | – | 0.00426
[8], 4.1 nM | 0.672 | –
[8], 12.3 nM | 0.609 | –
[8], 37 nM | 0.797 | –
[8], 111.1 nM | 1.23 | –
[8], 333.3 nM | 1.32 | –
[8], 1000 nM | 1.09 | –
[8], 3000 nM | 9.07 | –
[9], 4.1 nM | 0.779 | –
[9], 12.3 nM | 0.535 | –
[9], 37 nM | 0.676 | –
[9], 111.1 nM | 0.729 | –
[9], 333.3 nM | 1.9 | –
[9], 1000 nM | 1.38 | –
[9], 3000 nM | 10.2 | –
[10], 4.1 nM | 0.743 | –
[10], 12.3 nM | 3.16 | –
[10], 37 nM | 0.638 | –
[10], 111.1 nM | 0.6 | –
[10], 333.3 nM | 0.582 | –
[10], 1000 nM | 0.946 | –
[10], 3000 nM | 11.4 | –
[11], 4.1 nM | 0.516 | –
[11], 12.3 nM | 0.581 | –
[11], 37 nM | 0.657 | –
[11], 111.1 nM | 1.02 | –
[11], 333.3 nM | 1.87 | –
[11], 1000 nM | 1.97 | –
[11], 3000 nM | 5.26 | –
[12], 4.1 nM | 0.872 | –
[12], 12.3 nM | 0.488 | –
[12], 37 nM | 0.498 | –
[12], 111.1 nM | 0.528 | –
[12], 333.3 nM | 1.11 | –
[12], 1000 nM | 1.7 | –
[12], 3000 nM | 15.4 | –
[13], 4.1 nM | 0.34 | –
[13], 12.3 nM | 0.451 | –
[13], 37 nM | 0.622 | –
[13], 111.1 nM | 1.04 | –
[13], 333.3 nM | 0.781 | –
[13], 1000 nM | 1.5 | –
[13], 3000 nM | 13.5 | –
[14], 4.1 nM | 0.446 | –
[14], 12.3 nM | 0.566 | –
[14], 37 nM | 0.663 | –
[14], 111.1 nM | 1.07 | –
[14], 333.3 nM | 1.33 | –
[14], 1000 nM | 1.72 | –
[14], 3000 nM | 9.5 | –
